Results published in patent publication US7750013B2, “N-oxides as prodrugs of piperazine and piperidine derivatives” (Solvay Pharmaceuticals, B.V., priority 2005, dated 2010).
pKi: −log10 of the molar value.

Legend:
α2C-adrenergic = α2C-adrenergic (Homo sapiens, UniProt P18825); assay: In vitro receptor affinity, α2C-adrenergic; format: binding
Protocol: (§1) The binding data collected in the table below (Example 5: pharmacological test results) were either obtained by CEREP (128, rue Danton, 92500 Rueil-Malmaison, France) or at Solvay Pharmaceuticals B.V. (C. J. van Houtenlaan 36, 1381 CP Weesp, The Netherlands), using well documented standard procedures. The affinities for dopamine-D2 and 5-HT1A receptors for instance, was measured as described by Creese I, Schneider R and Snyder S H, [^3H]-Spiroperidol labels dopamine receptors in rat pituitary and brain, Eur J Pharmacol […], 46: 377-381 and Gozlan H, El Mestikawy S, Pichat L, Glowinsky J and Hamon M, 1983, Identification of presynaptic serotonin autoreceptors using a new ligand ^3H-PAT, Nature 1983, 305: 140-142.

α1A-adrenergic = α1A-adrenergic (Rattus norvegicus, UniProt P43140); assay: In vitro receptor affinity, α1A-adrenergic; format: binding
Chain of α1A-adrenergic (P43140 whole entry): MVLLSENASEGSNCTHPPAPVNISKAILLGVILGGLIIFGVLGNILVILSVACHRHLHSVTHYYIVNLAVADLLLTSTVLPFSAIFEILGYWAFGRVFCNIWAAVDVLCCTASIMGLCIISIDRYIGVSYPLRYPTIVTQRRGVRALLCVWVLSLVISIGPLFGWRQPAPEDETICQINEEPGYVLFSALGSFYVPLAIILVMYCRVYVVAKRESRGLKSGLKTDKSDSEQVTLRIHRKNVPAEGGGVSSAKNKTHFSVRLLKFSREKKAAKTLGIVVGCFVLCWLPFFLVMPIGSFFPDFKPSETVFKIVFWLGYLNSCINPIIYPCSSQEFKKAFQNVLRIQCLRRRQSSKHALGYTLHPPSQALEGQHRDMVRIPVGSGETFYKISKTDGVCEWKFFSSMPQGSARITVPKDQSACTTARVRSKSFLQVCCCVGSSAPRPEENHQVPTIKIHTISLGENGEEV
Protocol: as §1

5-HT3 = 5-HT3 (Rattus norvegicus, UniProt P35563); assay: In vitro receptor affinity, 5-HT3; format: binding
Chain of 5-HT3 (P35563 24-483): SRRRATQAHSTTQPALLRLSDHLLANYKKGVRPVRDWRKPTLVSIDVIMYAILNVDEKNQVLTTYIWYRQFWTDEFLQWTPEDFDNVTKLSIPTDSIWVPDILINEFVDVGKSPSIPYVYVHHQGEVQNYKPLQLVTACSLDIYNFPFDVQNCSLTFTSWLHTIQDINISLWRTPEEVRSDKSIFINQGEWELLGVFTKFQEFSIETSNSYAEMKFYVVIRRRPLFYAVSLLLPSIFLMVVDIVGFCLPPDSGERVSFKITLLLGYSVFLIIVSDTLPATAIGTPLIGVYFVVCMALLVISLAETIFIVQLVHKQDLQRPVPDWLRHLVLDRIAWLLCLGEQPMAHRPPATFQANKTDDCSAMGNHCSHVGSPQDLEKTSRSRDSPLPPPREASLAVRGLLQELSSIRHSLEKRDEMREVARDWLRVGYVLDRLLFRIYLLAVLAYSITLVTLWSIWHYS
Protocol: as §1

[1] = Plasma levels of SLV308 and its N-oxide after oral dosing; format: in vivo; settings: after oral administration; rats
Excerpt: These findings were corroborated by measurements of plasma levels of SLV308 and its N-oxide after oral dosing with SLV308 and the N-oxide.

5-HT7 = 5-HT7 (Homo sapiens, UniProt P34969); assay: In vitro receptor affinity, 5-HT7; format: binding
Chain of 5-HT7 (P34969 whole entry): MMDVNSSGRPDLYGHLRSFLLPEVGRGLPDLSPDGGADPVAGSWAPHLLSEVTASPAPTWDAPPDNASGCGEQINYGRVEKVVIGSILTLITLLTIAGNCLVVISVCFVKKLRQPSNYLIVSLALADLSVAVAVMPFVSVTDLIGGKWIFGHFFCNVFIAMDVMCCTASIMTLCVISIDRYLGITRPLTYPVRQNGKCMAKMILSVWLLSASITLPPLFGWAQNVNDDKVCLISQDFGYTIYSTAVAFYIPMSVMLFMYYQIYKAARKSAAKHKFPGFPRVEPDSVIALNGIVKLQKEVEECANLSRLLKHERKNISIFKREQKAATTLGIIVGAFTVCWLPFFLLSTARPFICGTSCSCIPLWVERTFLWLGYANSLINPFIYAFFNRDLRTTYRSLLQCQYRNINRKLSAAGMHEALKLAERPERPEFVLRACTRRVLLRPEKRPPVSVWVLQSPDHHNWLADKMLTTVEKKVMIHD
Protocol: as §1

μ-opiate = μ-opiate (Rattus norvegicus, UniProt P33535); assay: In vitro receptor affinity, μ-opiate; format: binding
Chain of μ-opiate (P33535 whole entry): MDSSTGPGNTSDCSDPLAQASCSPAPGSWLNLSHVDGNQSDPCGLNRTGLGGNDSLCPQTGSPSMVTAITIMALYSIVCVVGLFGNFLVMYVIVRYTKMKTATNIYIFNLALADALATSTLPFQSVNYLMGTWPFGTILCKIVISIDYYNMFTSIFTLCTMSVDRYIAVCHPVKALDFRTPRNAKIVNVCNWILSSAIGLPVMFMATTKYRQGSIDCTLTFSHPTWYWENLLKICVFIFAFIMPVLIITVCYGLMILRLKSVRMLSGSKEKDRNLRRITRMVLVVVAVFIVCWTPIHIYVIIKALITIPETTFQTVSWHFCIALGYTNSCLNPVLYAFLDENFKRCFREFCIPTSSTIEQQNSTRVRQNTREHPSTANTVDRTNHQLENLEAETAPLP
Protocol: as §1

β1-adrenergic = β1-adrenergic (Homo sapiens, UniProt P08588); assay: In vitro receptor affinity, β1-adrenergic; format: binding
Chain of β1-adrenergic (P08588 whole entry): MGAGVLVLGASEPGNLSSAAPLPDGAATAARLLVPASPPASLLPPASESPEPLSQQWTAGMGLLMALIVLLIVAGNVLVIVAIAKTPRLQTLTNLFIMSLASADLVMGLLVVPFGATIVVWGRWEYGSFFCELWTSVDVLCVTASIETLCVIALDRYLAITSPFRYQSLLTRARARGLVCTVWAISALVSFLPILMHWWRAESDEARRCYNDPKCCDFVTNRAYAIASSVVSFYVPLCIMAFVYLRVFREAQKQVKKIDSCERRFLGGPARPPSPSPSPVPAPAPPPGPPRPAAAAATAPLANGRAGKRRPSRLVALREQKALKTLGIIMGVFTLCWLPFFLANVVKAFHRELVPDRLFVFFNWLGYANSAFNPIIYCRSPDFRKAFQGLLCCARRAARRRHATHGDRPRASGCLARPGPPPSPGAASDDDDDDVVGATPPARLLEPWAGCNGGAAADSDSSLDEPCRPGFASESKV
Protocol: as §1

[2] = system: receptors for which the parent compound showed a high affinity; assay: In vitro screening of the N-oxide metabolite (receptor affinity overall); format: binding; settings: affinity very low or below the detection limit
Excerpt: In drug development, metabolites are routinely investigated for activity, toxicity, etc. […] These findings confirmed that in this case one of the most common situations with an N-oxide had occurred: metabolic deactivation.
as §1

5-HT1D = assay: In vitro receptor affinity, 5-HT1D; format: binding; settings: bovine; radioligand [3H]-serotonin
Protocol: as §1

5-HT1B = 5-HT1B (Rattus norvegicus, UniProt P28564); assay: In vitro receptor affinity, 5-HT1B; format: binding
Chain of 5-HT1B (P28564 whole entry): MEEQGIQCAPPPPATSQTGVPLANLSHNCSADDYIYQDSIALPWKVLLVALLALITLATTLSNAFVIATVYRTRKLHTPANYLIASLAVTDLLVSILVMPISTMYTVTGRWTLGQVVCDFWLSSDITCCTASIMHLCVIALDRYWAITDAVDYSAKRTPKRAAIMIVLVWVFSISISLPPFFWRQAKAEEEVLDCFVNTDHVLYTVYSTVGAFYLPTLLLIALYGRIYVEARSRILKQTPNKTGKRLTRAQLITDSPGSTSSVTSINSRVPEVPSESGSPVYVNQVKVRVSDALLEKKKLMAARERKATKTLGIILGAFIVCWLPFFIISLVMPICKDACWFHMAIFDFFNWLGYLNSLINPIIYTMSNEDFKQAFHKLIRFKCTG
Protocol: as §1

α1B-adrenergic = α1B-adrenergic (Rattus norvegicus, UniProt P15823); assay: In vitro receptor affinity, α1B-adrenergic; format: binding
Chain of α1B-adrenergic (P15823 whole entry): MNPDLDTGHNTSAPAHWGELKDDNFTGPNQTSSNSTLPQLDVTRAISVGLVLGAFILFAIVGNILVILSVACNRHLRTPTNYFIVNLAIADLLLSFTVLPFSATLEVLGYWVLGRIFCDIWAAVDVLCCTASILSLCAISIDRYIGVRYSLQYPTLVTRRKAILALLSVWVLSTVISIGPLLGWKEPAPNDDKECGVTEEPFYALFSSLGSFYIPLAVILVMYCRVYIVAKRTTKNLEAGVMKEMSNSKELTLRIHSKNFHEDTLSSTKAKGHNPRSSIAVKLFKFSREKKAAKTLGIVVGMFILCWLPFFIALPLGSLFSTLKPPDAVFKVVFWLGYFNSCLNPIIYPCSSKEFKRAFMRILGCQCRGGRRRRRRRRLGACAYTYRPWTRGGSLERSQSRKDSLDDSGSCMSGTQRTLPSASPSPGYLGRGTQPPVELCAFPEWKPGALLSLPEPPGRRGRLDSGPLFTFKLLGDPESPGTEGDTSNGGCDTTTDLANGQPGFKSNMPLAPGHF
Protocol: as §1

Chain of α2C-adrenergic (P18825 whole entry): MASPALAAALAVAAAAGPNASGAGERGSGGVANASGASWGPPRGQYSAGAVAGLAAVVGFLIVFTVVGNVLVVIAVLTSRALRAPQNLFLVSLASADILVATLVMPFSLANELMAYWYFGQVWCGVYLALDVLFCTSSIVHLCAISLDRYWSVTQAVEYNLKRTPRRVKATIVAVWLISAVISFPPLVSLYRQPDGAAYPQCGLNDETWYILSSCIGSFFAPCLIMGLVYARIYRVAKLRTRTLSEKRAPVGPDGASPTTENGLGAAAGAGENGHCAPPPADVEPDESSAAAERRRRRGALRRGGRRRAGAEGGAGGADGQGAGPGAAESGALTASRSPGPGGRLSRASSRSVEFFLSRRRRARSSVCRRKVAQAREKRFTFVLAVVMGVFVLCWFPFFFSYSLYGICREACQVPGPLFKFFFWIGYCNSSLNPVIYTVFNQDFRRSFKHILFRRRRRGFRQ

SMILES: C[N+]1([O-])CCN(c2cccc3[nH]c(=O)oc23)CC1 [N-oxide of SLV308, N-Oxide of SLV308]
- pKi (α2C-adrenergic): 6.40
- pKi (α1A-adrenergic): 6.20
- pKi (5-HT3): < 6.00
- Plasma levels of the N-oxide relative to SLV308 (in words) [1]: approximately equal
- pKi (5-HT7): < 6.00
- pKi (μ-opiate): < 6.00
- pKi (β1-adrenergic): < 6.00
- In vitro activity (in words) [2]: virtually inactive
- pKi (5-HT1D): < 6.00
- pKi (5-HT1B): < 6.00
- pKi (α1B-adrenergic): 6.40
- melting point: 242 to 243 °C
